Patent US20220356163A1, “SMALL MOLECULE INHIBITORS OF Id PROTEINS” (MEMORIAL SLOAN KETTERING CANCER CENTER, priority 2019, published 2022)

Key:
E47 = E47 (Homo sapiens, UniProt P15923); experiment: Circular dichroism (CD) of E47; type: binding; conditions: 0, 10, 20 and 50 μM
Protocol: Circular dichroism. Far UV Circular dichroism (CD) measurements were done on a Jasco J-1500 spectropolarimeter at room temperature using a 0.1 cm cell and a 0.1 mg/mL protein solution in the absence of presence of AGX51, AGX51E1, AGX51E2 or AGX-A. Due to the presence of DMSO in the samples, the lowest wavelength to be scanned is limited.

[1] = Concentration of AGX51 in the eyes after i.p. dosing; type: in vivo, mouse; conditions: 30 mg/kg i.p.
Protocol: Pharmacokinetic analyses. To determine the pharmacokinetic parameters of AGX51, eight-week old male Balb/c mice (Taconic farms) were dosed once by i.p. injection with 30 mg/kg, 50 mg/kg or 100 mg/kg AGX51 prepared in 70% DMSO (n=3 mice per group). Another set of three mice was dosed with 100 mg/kg AGX51 prepared in 100% DMSO. Blood was collected at 30 minutes, 1 hour, 3 hours, 6 hours and 24 hours post AGX51 administration and plasma analyzed via LC-MS as per the protocol previously validated in the MSKCC Antitumor Assessment Core Facility. Following blood collection, the mice were sacrificed via CO2 asphyxiation and the eyes from the 30 mg/kg treatment group were collected and flash frozen for analysis. Data obtained from LC-MS was analyzed via WinNonLin software (version 8.1) for pharmacokinetic parameters.
The concentration of AGX51 was thus measured in the eyes of mice dosed i.p. with 30 mg/kg AGX51 by mass spectrometry over 24 hours. […] The amount of AGX51 reaching the eye was well below the amount required by intraocular injection to show efficacy, which could be due to incomplete recovery from the extraction of dissected eyes or that effective dose ranges vary considerably with delivery route.

HUVEC = HUVEC scratch (migration) assay; type: cell-based, human; conditions: 0-40 μM, 24 hours
Protocol: HUVEC scratch assay. HUVECs were seeded on 24-well plate coated with 0.1% fibronectin. After 24 hours when cells were grown to confluency, cells were serum starved for 4 hours in Endothelial Basal Medium (EBM, Lonza) and scraped with a sterile P200 pipette tip to generate a cell free zone. Cells were washed with PBS and stimulated with EGM-2 medium with the indicated AGX concentration for 24 hours. The scratched area at 0 and at 24 hours was visualized using an inverted microscope and photographed with a digital camera at 20× magnification.

ID1 [2] = molecular target: T1, ID1 (Homo sapiens, UniProt P41134); experiment: Western blot for ID1 in HUVECs; type: cell-based; set-up: host or cells: HUVEC; conditions: 0-40 μM, 24 hours
T1 sequence (P41134 1-155): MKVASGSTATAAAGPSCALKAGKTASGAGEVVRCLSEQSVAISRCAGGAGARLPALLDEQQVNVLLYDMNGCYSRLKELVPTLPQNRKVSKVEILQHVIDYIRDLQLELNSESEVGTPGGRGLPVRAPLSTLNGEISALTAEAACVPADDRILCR
Protocol: Immunoblotting. For immunoblotting, cells were collected by trypsinization, washed with PBS and lysed in homogenization buffer (0.3 M sucrose, 10 mM Tris (pH 8.0), 400 mM sodium chloride, 3 mM magnesium chloride, 0.5% NP40/IGEPAL, 100 μg/mL Aprotinin+Protease inhibitor cocktail (Roche #11 836 153 001). Proteins were separated by SDS-PAGE, transferred to a membrane (LI-COR), probed with primary antibodies overnight at 4° C., and probed with secondary antibodies (LI-COR) for 1-2 hours at room temperature. Proteins were visualized using the LI-COR Odyssey Infrared Imaging detection system. The following primary antibodies were used Id1, Id2, Id3, Id4 (195-14, 9-2-8, 17-3, 82-12, respectively, all from Biocheck), Cyclin D1 (2978, Cell Signaling), Actin (A2066, Sigma), Tubulin (T4026, Sigma). Western blot quantification was carried out using channel 700 and channel 800 intensity data from Odyssey application software version 3.0.30 (LI-COR), subtracting blank values and normalizing to Tubulin.
The activity of AGX51 was tested on primary human umbilical vein endothelial cells (HUVECs) and the HCT116 colorectal cancer cell line, two cell types with different ID1-4 expression profiles. […] The effects of AGX51 on ID3 loss in HUVECs was diminished in the 20-40 μM range compared with ID1, consistent with the weaker perturbation observed in the CD spectra.

ID1 [3] = molecular target: T1, ID1; experiment: Knockdown of Id1 in TFK1 cell cultures; type: cell-based; set-up: endogenous in cells; host or cells: TFK1; conditions: TFK1, FIG. 21
Description: Following the methods described herein (see, e.g., Examples 12-13), AGX-A and AGX51 were compared for their ability to mediate Id knockdown in cell cultures. FIG. 21 illustrates side-by-side comparative effects of AGX51 and AGX-A for knockdown of Id1 in TFK1 cell cultures, and FIG. 22 illustrates side-by-side comparative effects of AGX51 and AGX-A for knockdown of Id3 in TFK1 cell cultures.

Sequence of E47 (P15923 1-651 isoform P15923-2): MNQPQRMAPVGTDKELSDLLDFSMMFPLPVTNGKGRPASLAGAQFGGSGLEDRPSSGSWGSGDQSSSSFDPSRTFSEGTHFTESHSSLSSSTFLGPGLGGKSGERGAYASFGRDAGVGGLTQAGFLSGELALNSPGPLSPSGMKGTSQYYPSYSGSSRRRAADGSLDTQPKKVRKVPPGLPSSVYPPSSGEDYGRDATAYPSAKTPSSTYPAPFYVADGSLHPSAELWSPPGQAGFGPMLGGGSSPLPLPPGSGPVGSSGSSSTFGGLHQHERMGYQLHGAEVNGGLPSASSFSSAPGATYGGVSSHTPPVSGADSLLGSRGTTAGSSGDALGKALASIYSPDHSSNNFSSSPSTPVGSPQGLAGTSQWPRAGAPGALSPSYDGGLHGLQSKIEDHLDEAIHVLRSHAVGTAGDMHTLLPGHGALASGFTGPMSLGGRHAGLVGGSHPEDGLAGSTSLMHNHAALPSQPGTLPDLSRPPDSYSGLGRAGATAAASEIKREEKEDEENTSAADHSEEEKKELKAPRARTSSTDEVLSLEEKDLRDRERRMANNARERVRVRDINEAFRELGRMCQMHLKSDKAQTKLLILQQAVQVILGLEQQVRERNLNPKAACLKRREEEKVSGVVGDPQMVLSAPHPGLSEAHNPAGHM

Row | SMILES | interaction with E47 (CD) (E47) | half-life in the eye [1] | maximum concentration in the eye ([1]; after 30 minutes) | HUVEC migration (HUVEC) | concentration at which significant decrease in ID1 protein levels was observed (ID1 [2]) | Id1 knockdown potency vs AGX51 (ID1 [3])
1 | CCC(=O)N(CCC(c1ccc2c(c1)OCO2)c1ccccc1OC)Cc1ccccc1 (racemic) [AGX51, N-(3-(benzo[d][1,3]dioxol-5-yl)-3-(2-methoxyphenyl)propyl)-N-benzylpropionamide] | no evidence of an interaction | 3.7 h | ~4 ng/eye | significantly impaired HUVEC migration | 10 µM | 
2 | COc1ccccc1C(CCNCc1ccccc1)c1ccc(OC(C)C)cc1 (stereo not drawn) [AGX-A, N-benzyl-3-(4-isopropoxyphenyl)-3-(2-methoxyphenyl)propan-1-anine] |  |  |  |  |  | superior anti-Id1 and anti-Id3 potency compared to AGX51
